Tests used:
[1] = test system: Breast-5 (BR5) triple-negative breast cancer (TNBC) PDX; assay: In vivo efficacy, BR5 TNBC PDX; parameters: species or system NOD/SCID mice (human tumor PDX); conditions: for tumor volume ± SEM: 1.5 mg/kg
[2] = test system: Breast-13 (BR13) TNBC PDX; assay: In vivo efficacy, BR13 TNBC PDX; parameters: species or system NOD/SCID mice (human tumor PDX); conditions: for tumor volume ± SEM: 1.5 mg/kg
[3] = test system: Breast-31 (BR31) TNBC PDX; assay: In vivo efficacy, BR31 TNBC PDX; parameters: species or system NOD/SCID mice (human tumor PDX); conditions: for mean tumor volume: 1.5 mg/kg
[4] = test system: Breast-56 (BR56) TNBC PDX; assay: In vivo efficacy, BR56 TNBC PDX; parameters: species or system NOD/SCID mice (human tumor PDX); conditions: for tumor volume ± SEM: 1.5 mg/kg
[5] = test system: Ovarian-39 (OV39) ovarian cancer PDX; assay: In vivo efficacy, OV39 ovarian cancer PDX; parameters: species or system NOD/SCID mice (human tumor PDX); conditions: for mean tumor volume: 1.5 mg/kg
[6] = test system: BR25; assay: In vivo efficacy, BR25 TNBC Claudin-low tumor model; parameters: species or system mice; conditions: 1.5 mpk
Excerpt: (§1) In breast and ovarian models, tumor regression was defined as a reduction in mean tumor volume after dosing. TGI=Tumor Growth Inhibition. % TGI=[1−(Mean Tumor Volume of Treated)/(Mean Tumor Volume of Vehicle)]. […] ADC dose levels are listed in mg/kg according to antibody content.

[7] = test system: BR64; assay: In vivo efficacy, BR64 TNBC Claudin-low tumor model; parameters: species or system mice; conditions: 1.5 mpk
Excerpt: as §1

[8] = test system: BR17; assay: In vivo efficacy, BR17 HER2+ breast tumor model; parameters: species or system mice; conditions: 1.5 mpk
Excerpt: as §1

[9] = test system: Breast-22 (BR22) TNBC PDX; assay: In vivo efficacy, BR22 TNBC PDX; conditions: for tumor volume ± SEM: 1.5 mg/kg
Excerpt: as §1

[10] = test system: Ovarian-44 (OV44) ovarian cancer PDX; assay: In vivo efficacy, OV44 ovarian cancer PDX; parameters: species or system NOD/SCID mice (human tumor PDX); conditions: 5 mpk, once a week for 2 cycles
[11] = test system: Ovarian-63 (OV63) ovarian cancer PDX; assay: In vivo efficacy, OV63 ovarian cancer PDX; parameters: species or system NOD/SCID mice (human tumor PDX); mean tumor volume: unit not given beside the values; conditions: for mean tumor volume: 5.0 mg/kg

## COc1cccc2c1C(=O)c1c(O)c3c(c(O)c1C2=O)C[C@@](O)(C(=O)CO)C[C@@H]3O[C@H]1C[C@H](N)[C@H](O)[C@H](C)O1 [Doxorubicin, doxorubicin, reference compound]
[1]; Day 0
  tumor volume ± SEM: 166 ± 18 mm^3
[1]; Day 7
  tumor volume ± SEM: 494 ± 70 mm^3
[1]; Day 11
  tumor volume ± SEM: 752 ± 92 mm^3
[1]; Day 18
  tumor volume ± SEM: 966 ± 32 mm^3
[1]; 1.5 mpk, BR5 PDX
  % TGI: 44% TGI
[1]; in vivo
  impact on tumor growth: neither the control ADC nor doxorubicin standard-of-care (SOC) impacted tumor growth
[2]; Day 0
  tumor volume ± SEM: 167 ± 13 mm^3
[2]; Day 7
  tumor volume ± SEM: 178 ± 20 mm^3
[2]; Day 22
  tumor volume ± SEM: 322 ± 38 mm^3
[2]; Day 14
  tumor volume ± SEM: 227 ± 25 mm^3
[2]; Day 28
  tumor volume ± SEM: 326 ± 34 mm^3
[2]; 1.5 mpk, BR13
  % TGI: 16% TGI
[2]; in vivo
  impact on tumor growth: neither the control ADC nor doxorubicin SOC impacted tumor growth
[3]; Day 0
  mean tumor volume: 160 ± 11
[3]; Day 7
  mean tumor volume: 304 ± 20
[3]; Day 14
  mean tumor volume: 458 ± 24
[3]; Day 21
  mean tumor volume: 592 ± 56
[3]; Day 28
  mean tumor volume: 759 ± 111
[3]; 1.5 mpk, BR31 PDX
  % TGI: 30% TGI
[3]; in vivo
  impact on tumor growth: neither the control ADC nor doxorubicin SOC impacted tumor growth
[4]; Day 0
  tumor volume ± SEM: 141 ± 13 mm^3
[4]; Day 4
  tumor volume ± SEM: 182 ± 11 mm^3
[4]; Day 11
  tumor volume ± SEM: 267 ± 31 mm^3
[4]; Day 18
  tumor volume ± SEM: 318 ± 32 mm^3
[4]; Day 25
  tumor volume ± SEM: 374 ± 50 mm^3
[4]; 1.5 mpk, BR56 PDX
  % TGI: 49% TGI
[4]; in vivo
  impact on tumor growth: neither the control ADC nor doxorubicin SOC impacted tumor growth
[5]; Day 0
  mean tumor volume: 186 ± 33
[5]; Day 7
  mean tumor volume: 282 ± 50
[5]; Day 14
  mean tumor volume: 171 ± 32
[5]; Day 17
  mean tumor volume: 122 ± 24
[5]; Day 24
  mean tumor volume: 83 ± 11
[5]; Day 28
  mean tumor volume: 118 ± 17
[5]; Day 35
  mean tumor volume: 361 ± 40
[5]; Day 42
  mean tumor volume: 712 ± 97
[5]; Day 49
  mean tumor volume: 966 ± 85
[6]
  Regression (TTP, Days) or % TGI: No activity
[7]
  Regression (TTP, Days) or % TGI: No activity
[8]
  % TGI: 66% TGI
[9]; Day 0
  tumor volume ± SEM: 244 ± 17 mm^3
[9]; Day 7
  tumor volume ± SEM: 416 ± 61 mm^3
[9]; Day 14
  tumor volume ± SEM: 553 ± 39 mm^3
[9]; Day 21
  tumor volume ± SEM: 729 ± 91 mm^3
[9]; 1.5 mpk, BR22 PDX
  % TGI: 27% TGI
[9]; in vivo
  impact on tumor growth: Neither the control ADC nor doxorubicin SOC impacted tumor growth

## N.N.[Cl][Pt][Cl] [Cisplatin, cisplatin, reference compound]
[10]
  Regression (TTP, Days): Regression (60) Days
[11]; Day 0
  mean tumor volume: 153 ± 22
[11]; Day 5
  mean tumor volume: 146 ± 27
[11]; Day 18
  mean tumor volume: 198 ± 29
[11]; Day 25
  mean tumor volume: 205 ± 36
[11]; Day 32
  mean tumor volume: 238 ± 49
[11]; Day 39
  mean tumor volume: 221 ± 40
[11]; Day 47
  mean tumor volume: 243 ± 42
[11]; Day 53
  mean tumor volume: 265 ± 63
[11]; Day 60
  mean tumor volume: 296 ± 80
[11]; Day 67
  mean tumor volume: 265 ± 82
[11]; 5 mpk, once a week for 2 cycles, OV63 PDX
  % TGI: 35% TGI
[5]; 5 mpk, once a week for 2 cycles, OV39
  Regression (TTP, Days): Regression (28) Days

Reference: patent US9872922B2, “Anti-EFNA4 antibody-drug conjugates” (PFIZER, INC., priority 2013, dated 2018)
